Experimental data reported in US4612372A, “Tylosin derivatives” (Sanraku Incorporated, priority 1984, dated 1986).

Key:
[1] = Stability against liver homogenate of mice; assay type: in vitro ADME, mice (ICB strain); conditions: for remaining at 1 h: pH 7.2, mouse liver homogenate supernatant, 37° C., contact 60 minutes, read-out: Residual Intact Compound Rate
Description: Liver from ICB strain mice was homogenated with a potter's homogenizer (3000 rpm, 10 minutes) together with a 5-fold amount of 0.1M phosphate buffer (pH 7.2). To the supernatant was added 1 ml of a 500 μg/ml (10% methanolic water) of a specimen. After the mixture was reacted at 37° C. for 1 hour, the reaction mixture was heated at 100° C. for 3 minutes. Then, 1 ml of 0.1M phosphate buffer (pH 9.0) was added thereto and extracted with 1 ml of ethyl acetate. The organic layer was subjected to silica gel thin layer chromatograph y (chloroform/methanol/ammonia=15/1.2/0.1). By a chromatographic scanner (283 nm), a formation ratio of the unchanged substance to the hydrolysate was determined and the formation of the hydrolysate was expressed by percentage.

[2] = system: resistant bacteria; conditions: drug-resistant bacteria
[3] = system: infectious diseases of mice; assay: Experiment of treatment for infectious diseases of mice; assay type: in vivo
[4] = system: resistant bacteria; conditions: U.S. Pat. No. 4,205,163; cited from earlier work
[5] = system: pathogenic microorganisms; assay: Antibacterial activity in general (in words); assay type: cell-based
[6] = system: esterase; assay: Hydrolysis by esterase in vivo (particularly in liver)

Structure (SMILES) | remaining at 1 h [1] [%] | other results
CCC1OC(=O)CC(O)C(C)C(OC2OC(C)C(OC3CC(C)(O)C(OC(=O)Cc4ccc(S(C)(=O)=O)cc4)C(C)O3)C(N(C)C)C2O)C(CC=O)CC(C)C(=O)C=CC(C)=CC1COC1OC(C)C(O)C(OC)C1OC (stereo not shown) [Compound 1, 4"-O-(4-Methylsulfonylphenylacetyl)tylosin] | 89 | 
CCC1OC(=O)CC(O)C(C)C(OC2OC(C)C(OC3CC(C)(O)C(OC(=O)Cc4ccc(SC)cc4)C(C)O3)C(N(C)C)C2O)C(CC=O)CC(C)C(=O)C=CC(C)=CC1COC1OC(C)C(O)C(OC)C1OC (stereo not shown) [Compound 2, 4"-O-(4-Methylthiophenylacetyl)tylosin] | 84 | 
CCC1OC(=O)CC(O)C(C)C(OC2OC(C)C(OC3CC(C)(O)C(OC(=O)Cc4ccc(C(C)=O)cc4)C(C)O3)C(N(C)C)C2O)C(CC=O)CC(C)C(=O)C=CC(C)=CC1C (stereo not shown) [Compound 3] | 95 | 
CCC1OC(=O)CC(O)C(C)C(OC2OC(C)C(OC3CC(C)(O)C(OC(=O)Cc4ccc(C(=O)c5ccccc5)cc4)C(C)O3)C(N(C)C)C2O)C(CC=O)CC(C)C(=O)C=CC(C)=CC1COC1OC(C)C(O)C(OC)C1OC (stereo not shown) [Compound 4, 4"-O-(4-Benzoylphenylacetyl)tylosin] | 82 | 
CCC1OC(=O)CC(O)C(C)C(OC2OC(C)C(OC3CC(C)(O)C(OC(=O)Cc4ccc(OC)cc4)C(C)O3)C(N(C)C)C2O)C(CC=O)CC(C)C(=O)C=CC(C)=CC1COC1OC(C)C(O)C(OC)C1OC (stereo not shown) [Compound 5, 4"-O-(4-Methoxyphenylacetyl)tylosin] | 94 | 
CCC1OC(=O)CC(O)C(C)C(OC2OC(C)C(OC3CC(C)(O)C(OC(=O)Cc4ccc(F)cc4)C(C)O3)C(N(C)C)C2O)C(CC=O)CC(C)C(=O)C=CC(C)=CC1COC1OC(C)C(O)C(OC)C1OC (stereo not shown) [Compound 6, 4"-O-(4-Fluorophenylacetyl)tylosin] | 95 | 
CCC1OC(=O)CC(O)C(C)C(OC2OC(C)C(OC3CC(C)(O)C(OS(=O)(=O)Cc4ccc(F)cc4)C(C)O3)C(N(C)C)C2O)C(CC=O)CC(C)C(=O)C=CC(C)=CC1COC1OC(C)C(O)C(OC)C1OC (stereo not shown) [Compound 7, 4"-O-(4-Fluorobenzylsulfonyl)tylosin] | < 95 | 
CCC1OC(=O)CC(O)C(C)C(OC2OC(C)C(OC3CC(C)(O)C(OC(=O)Cc4ccc(C(C)=O)cc4)C(C)O3)C(N(C)C)C2O)C(CC=O)CC(C)C(=O)C=CC(C)=CC1COC1OC(C)C(O)C(OC)C1OC (stereo not shown) [Compound 8, 4"-O-(4-Acetylphenylacetyl)tylosin] | < 95 | 
CCC1OC(=O)CC(O)C(C)C(OC2OC(C)C(OC3CC(C)(O)C(OC(=O)Cc4ccccc4F)C(C)O3)C(N(C)C)C2O)C(CC=O)CC(C)C(=O)C=CC(C)=CC1COC1OC(C)C(O)C(OC)C1OC (stereo not shown) [Compound 9, 4"-O-(2-Fluorophenylacetyl)tylosin] | 95 | 
CCC1OC(=O)CC(OC(C)=O)C(C)C(OC2OC(C)C(OC3CC(C)(O)C(OC(=O)Cc4ccc(C(C)=O)cc4)C(C)O3)C(N(C)C)C2O)C(CC=O)CC(C)C(=O)C=CC(C)=CC1COC1OC(C)C(O)C(OC)C1OC (stereo not shown) [Compound 10, 3-O-acetyl-4"-O-(4-acetylphenylacetyl)tylosin] | < 95 | 
CCC1OC(=O)CC(O)C(C)C(OC2OC(C)C(OC3CC(C)(O)C(OC(=O)Cc4ccccc4)C(C)O3)C(N(C)C)C2O)C(CC=O)CC(C)C(=O)C=CC(C)=CC1COC1OC(C)C(O)C(OC)C1OC (stereo not shown) [Control 1, reference compound] |  | antibacterial activity against resistant bacteria (in words) [2]: poor in antibacterial activity against resistant bacteria; stability against liver homogenate (in words) ([1]; liver homogenate of mice): good result
CCC1OC(=O)CC(O)C(C)C(OC2OC(C)C(OC3CC(C)(O)C(OC(=O)CSc4ccccc4)C(C)O3)C(N(C)C)C2O)C(CC=O)CC(C)C(=O)C=CC(C)=CC1COC1OC(C)C(O)C(OC)C1OC (stereo not shown) [Control 2, 4"-O-phenylthioacetyltylosin] | 0 | result in experiment of treatment for infectious diseases of mice (in words) [3]: merely unsatisfactory results; effectiveness against macrolide-resistant bacteria (in words) [4]: most effective tylosin derivative against macrolide-resistant bacteria; antibacterial activity (in words) [5]: high antibacterial activity in vitro; hydrolysis by esterase (in words) [6]: completely hydrolyzed by esterase
CCC1OC(=O)CC(O)C(C)C(OC2OC(C)C(OC3CC(C)(O)C(OC(=O)Cc4ccccc4)C(C)O3)C(N(C)C)C2O)C(CC=O)CC(C)C(=O)C=CC(C)=CC1COC1OC(C)C(O)C(OC)C1OC (stereo not shown) [Control 3, reference compound] | < 95 | 
CCC1OC(=O)CC(O)C(C)C(OC2OC(C)C(OC3CC(C)(O)C(OS(=O)(=O)Cc4ccccc4)C(C)O3)C(N(C)C)C2O)C(CC=O)CC(C)C(=O)C=CC(C)=CC1COC1OC(C)C(O)C(OC)C1OC (stereo not shown) [Control 4, reference compound] | 0 | 
